Source: US10597388B2, “Pyridazinone herbicides” (FMC CORPORATION, priority 2014, dated 2020)

Tests used:
Experiment in all cases: Test C greenhouse herbicide test, pre- and postemergence
Format in all cases: in vivo
[1] = system: ragweed (common ragweed, Ambrosia elatior)
Source text: (§1) Seeds of plant species selected from blackgrass (Alopecurus myosuroides), ryegrass, Italian (Italian ryegrass, Lolium multiflorum), wheat (winter wheat, Triticum aestivum), galium (catchweed bedstraw, Galium aparine), corn (Zea mays), large crabgrass, large (large crabgrass, Digitaria sanguinalis), foxtail, giant (giant foxtail, Setaria faberii), johnsongrass (Sorghum halepense), lambsquarters (Chenopodium album), morningglory (Ipomoea coccinea), nutsedge, yellow (yellow nutsedge, Cyperus esculentus), pigweed (Amaranthus retroflexus), ragweed (common ragweed, Ambrosia elatior), soybean (Glycine max), barnyardgrass (Echinochloa crus-galli), oilseed rape (Brassica napus), waterhemp (common waterhemp, Amaranthus rudis), and velvetleaf (Abutilon theophrasti) were planted into a blend of loam soil and sand and treated preemergence with test chemicals formulated in a non-phytotoxic solvent mixture which included a surfactant.
(§2) At the same time, plants selected from these crop and weed species and also chickweed (common chickweed, Stellaria media), kochia (Kochia scoparia), and oat, wild (wild oat, Avena fatua), were planted in pots containing Redi-Earth® planting medium (Scotts Company, 14111 Scottslawn Road, Marysville, Ohio 43041) comprising spaghnum peat moss, vermiculite, wetting agent and starter nutrients and treated with postemergence applications of test chemicals formulated in the same manner. Plants ranged in height from 2 to 18 cm (1- to 4-leaf stage) for postemergence treatments. Treated plants and controls were maintained in a greenhouse for 13 to 15 d, after which time all species were compared to controls and visually evaluated. Plant response ratings, summarized in Table C, are based on a scale of 0 to 100 where 0 is no effect and 100 is complete control. A dash (-) response means no test result.

[2] = system: oilseed rape (Brassica napus)
Source text: as §1, §2

[3] = system: ryegrass, Italian (Italian ryegrass, Lolium multiflorum)
Source text: as §1, §2

[4] = system: nutsedge, yellow (yellow nutsedge, Cyperus esculentus)
Source text: as §1, §2

[5] = system: crabgrass, large (large crabgrass, Digitaria sanguinalis)
Source text: as §1, §2

[6] = system: waterhemp (common waterhemp, Amaranthus rudis)
Source text: as §1, §2

[7] = system: velvetleaf (Abutilon theophrasti)
Source text: as §1, §2

[8] = system: foxtail, giant (giant foxtail, Setaria faberii)
Source text: as §1, §2

[9] = system: morningglory (Ipomoea coccinea)
Source text: as §1, §2

corn (Zea mays) = system: corn (Zea mays)
Source text: as §1, §2

[10] = system: galium (catchweed bedstraw, Galium aparine)
Source text: as §1, §2

[11] = system: barnyardgrass (Echinochloa crus-galli)
Source text: as §1, §2

soybean (Glycine max) = system: soybean (Glycine max)
Source text: as §1, §2

[12] = system: blackgrass (Alopecurus myosuroides)
Source text: as §1, §2

[13] = system: lambsquarters (Chenopodium album)
Source text: as §1, §2

[14] = Postemergence, 31 g ai/ha, 0 to 100 scale (0 no effect, 100 complete control)
[15] = Postemergence, 125 g ai/ha, scale 0 to 100, 0 is no effect, 100 is complete control
[16] = Postemergence, 250 g ai/ha, scale 0 to 100, 0 no effect, 100 complete control, 13 to 15 d
[17] = Preemergence, 31 g ai/ha, scale 0 to 100, 0 is no effect, 100 is complete control
[18] = Preemergence, 62 g ai/ha, scale 0 to 100, 0 is no effect, 100 is complete control
[19] = Preemergence, 125 g ai/ha, scale 0 to 100, 0 is no effect, 100 is complete control
[20] = Preemergence, 250 g ai/ha, scale 0 to 100, 0 no effect, 100 complete control
[21] = postemergence, 62 g ai/ha, scale 0 to 100, 0 no effect, 100 complete control

Compound: Cc1cc(C)c2ccccc2c1-c1c(O)c(C)nn(C)c1=O [Compound 21]
- Ragweed plant response rating [1, 14]: 85
- Plant response rating, Ragweed [1, 15]: 90
- Plant response rating, Ragweed [1, 16]: 95
- Plant response rating, Ragweed [1, 17]: 95
- Plant response rating, Ragweed [1, 18]: 100
- Plant response rating, Ragweed [1, 19]: 100
- Ragweed plant response rating [1, 20]: 100
- Ragweed plant response rating [1, 21]: 90
- Oilseed Rape plant response rating [2, 14]: 65
- Plant response rating, Oilseed Rape [2, 15]: 100
- Plant response rating, Oilseed Rape [2, 16]: 100
- Plant response rating, Oilseed Rape [2, 17]: 90
- Plant response rating, Oilseed Rape [2, 18]: 100
- Plant response rating, Oilseed Rape [2, 19]: 100
- Oilseed Rape plant response rating [2, 20]: 100
- Oilseed Rape plant response rating [2, 21]: 80
- Ryegrass, Italian plant response rating [3, 14]: 90
- Plant response rating, Ryegrass, Italian [3, 15]: 95
- Plant response rating, Ryegrass, Italian [3, 16]: 95
- Plant response rating, Ryegrass, Italian [3, 17]: 90
- Plant response rating, Ryegrass, Italian [3, 18]: 90
- Plant response rating, Ryegrass, Italian [3, 19]: 90
- Ryegrass, Italian plant response rating [3, 20]: 95
- Ryegrass, Italian plant response rating [3, 21]: 95
- Nutsedge, Yellow plant response rating [4, 14]: 85
- Plant response rating, Nutsedge, Yellow [4, 15]: 90
- Plant response rating, Nutsedge, Yellow [4, 16]: 90
- Plant response rating, Nutsedge, Yellow [4, 17]: 75
- Plant response rating, Nutsedge, Yellow [4, 18]: 85
- Plant response rating, Nutsedge, Yellow [4, 19]: 85
- Nutsedge, Yellow plant response rating [4, 20]: 85
- Nutsedge, Yellow plant response rating [4, 21]: 90
- Crabgrass, Large plant response rating [5, 14]: 30
- Plant response rating, Crabgrass, Large [5, 15]: 40
- Plant response rating, Crabgrass, Large [5, 16]: 55
- Plant response rating, Crabgrass, Large [5, 17]: 35
- Plant response rating, Crabgrass, Large [5, 18]: 85
- Plant response rating, Crabgrass, Large [5, 19]: 85
- Crabgrass, Large plant response rating [5, 20]: 100
- Crabgrass, Large plant response rating [5, 21]: 35
- Waterhemp plant response rating [6, 14]: 40
- Plant response rating, Waterhemp [6, 15]: 85
- Plant response rating, Waterhemp [6, 16]: 80
- Plant response rating, Waterhemp [6, 18]: 95
- Plant response rating, Waterhemp [6, 19]: 100
- Waterhemp plant response rating [6, 20]: 100
- Waterhemp plant response rating [6, 21]: 75
- Velvetleaf plant response rating [7, 14]: 75
- Plant response rating, Velvetleaf [7, 15]: 85
- Plant response rating, Velvetleaf [7, 16]: 90
- Plant response rating, Velvetleaf [7, 18]: 90
- Plant response rating, Velvetleaf [7, 19]: 98
- Velvetleaf plant response rating [7, 20]: 98
- Velvetleaf plant response rating [7, 21]: 85
- Foxtail, Giant plant response rating [8, 14]: 55
- Plant response rating, Foxtail, Giant [8, 15]: 90
- Plant response rating, Foxtail, Giant [8, 16]: 95
- Plant response rating, Foxtail, Giant [8, 17]: 100
- Plant response rating, Foxtail, Giant [8, 18]: 100
- Plant response rating, Foxtail, Giant [8, 19]: 100
- Foxtail, Giant plant response rating [8, 20]: 100
- Foxtail, Giant plant response rating [8, 21]: 80
- Morningglory plant response rating [9, 14]: 85
- Plant response rating, Morningglory [9, 15]: 100
- Plant response rating, Morningglory [9, 16]: 100
- Plant response rating, Morningglory [9, 17]: 95
- Plant response rating, Morningglory [9, 18]: 98
- Plant response rating, Morningglory [9, 19]: 100
- Morningglory plant response rating [9, 20]: 100
- Morningglory plant response rating [9, 21]: 100
- Corn plant response rating (corn (Zea mays); [14]): 5
- Plant response rating, Corn (corn (Zea mays); [15]): 20
- Plant response rating, Corn (corn (Zea mays); [16]): 20
- Plant response rating, Corn (corn (Zea mays); [17]): 0
- Plant response rating, Corn (corn (Zea mays); [18]): 15
- Plant response rating, Corn (corn (Zea mays); [19]): 40
- Corn plant response rating (corn (Zea mays); [20]): 65
- Corn plant response rating (corn (Zea mays); [21]): 65
- Galium plant response rating [10, 14]: 98
- Plant response rating, Galium [10, 15]: 100
- Plant response rating, Galium [10, 16]: 100
- Plant response rating, Galium [10, 17]: 98
- Plant response rating, Galium [10, 18]: 98
- Plant response rating, Galium [10, 19]: 98
- Galium plant response rating [10, 20]: 100
- Galium plant response rating [10, 21]: 100
- Barnyardgrass plant response rating [11, 14]: 35
- Plant response rating, Barnyardgrass [11, 15]: 75
- Plant response rating, Barnyardgrass [11, 16]: 90
- Plant response rating, Barnyardgrass [11, 17]: 80
- Plant response rating, Barnyardgrass [11, 18]: 100
- Plant response rating, Barnyardgrass [11, 19]: 100
- Barnyardgrass plant response rating [11, 20]: 100
- Barnyardgrass plant response rating [11, 21]: 45
- Soybean plant response rating (soybean (Glycine max); [14]): 0
- Plant response rating, Soybean (soybean (Glycine max); [15]): 10
- Plant response rating, Soybean (soybean (Glycine max); [16]): 20
- Plant response rating, Soybean (soybean (Glycine max); [18]): 0
- Plant response rating, Soybean (soybean (Glycine max); [19]): 0
- Soybean plant response rating (soybean (Glycine max); [20]): 20
- Soybean plant response rating (soybean (Glycine max); [21]): 0
- Blackgrass plant response rating [12, 14]: 80
- Plant response rating, Blackgrass [12, 15]: 90
- Plant response rating, Blackgrass [12, 16]: 95
- Plant response rating, Blackgrass [12, 17]: 90
- Plant response rating, Blackgrass [12, 18]: 90
- Plant response rating, Blackgrass [12, 19]: 90
- Blackgrass plant response rating [12, 20]: 90
- Blackgrass plant response rating [12, 21]: 90
- Lambsquarters plant response rating [13, 14]: 85
- Plant response rating, Lambsquarters [13, 15]: 95
- Plant response rating, Lambsquarters [13, 16]: 98
- Plant response rating, Lambsquarters [13, 17]: 90
- Plant response rating, Lambsquarters [13, 18]: 98
- Plant response rating, Lambsquarters [13, 19]: 98
- Lambsquarters plant response rating [13, 20]: 100
- Lambsquarters plant response rating [13, 21]: 90
